{"source": "patent US20060276436A1", "about": "“Farnesyl dibenzodiazepinone formulation” (Ecopia BioSciences, Inc., priority 2005, published 2006)", "key": {"[1]": {"tested_on": "human glioma (U-87MG) tumor xenograft", "test": "Human U-87 MG glioblastoma mice model, antitumor efficacy", "assay_type": "in vivo", "conditions": "SC 30 mg/kg q1d×5 over 2 weeks", "method": "Tumor growth was followed every other day by measuring tumor length (L) and width (W) using a calliper. Measurements were converted to tumor volumes (TV; mm^3) using the standard formula, TV=(L×W^2)/2. Tumor volume at day n was expressed as relative tumor volume (RTV) according to the following formula RTV=TVn/TV0, where TVn is the tumor volume at day n and TV0 is the tumor volume at day 0. The percentage of tumor growth inhibition (% TGI) was determined by 1−(mean RTV of treated group/mean RTV of control group)×100. […] Statistical analysis was calculated by the two-tailed unpaired t test using the Prism software. […]\nThe human U-87 MG (ATCC® no. HTB-14™) glioblastoma antitumor efficacy study was performed at INSERM U318 (Grenoble, France). […] On each dosing day, Compound 1 stock solutions (24 and 40 mg/mL in bulk Formulation B11) were diluted with sterile 5% dextrose in water (D5W) to prepare a dosing solution of 6 mg/mL of Compound 1 in ready-to-use Formulation D11 (5% ethanol, 5% PEG400, 15% polysorbate 80, and 75% D5W).\nFor the human glioblastoma antitumor efficacy study, female athymic (nu/nu) nude mice (6-7 weeks of age) were inoculated SC with 5×10^6 U-87MG cells (day 0). […] Tumor growth inhibition (TGI) was calculated on day 34 post tumor cell inoculation, at which time some animals from the vehicle control group had to be sacrificed due to tumor burden."}, "[2]": {"tested_on": "human prostate tumor (PC3) xenografts", "test": "Human PC3 prostate cancer mice model", "assay_type": "in vivo, HRLN male nude mice", "conditions": "Intravenous treatment, 100 mg/kg 5/2/5/2/5", "method": "The anticancer activity of Compound 1 was tested in a human PC3 prostate model in mice, using formulation D11; at 6, 9 and 10 mg/mL concentrations (see Table 7). HRLN male nude mice (8 weeks of age) were implanted with 1 mm^3 PC3 tumor fragments subcutaneously (sc) in the right flank. Animals were randomized (ten per group) when tumors reach an average size of 80-120 mg and treatment began according to the table below.\nTumor measurements were taken twice weekly using callipers and were converted to tumor mass (in milligrams) using the formula: with^2 (mm)×length (mm)×0.52. Body weights were also recorded twice weekly. Statistical analysis was done using the unpaired two-tailed Student's t test."}, "[3]": {"test": "Pharmacokinetics of Formulation D11 given CIV for 14 days in monkeys", "assay_type": "in vivo, Cynomolgus monkeys", "conditions": "for Css / T1/2z / Vd / AUC / clearance: 14-day CIV, Mean (SD); for Css: average between 30 h and 14 days; for T1/2z: end of treatment; for Vd / AUC / clearance: iv", "method": "Cynomolgus monkeys received continuous IV infusion over 14 days of Compound 1 at 5 mg/kg/day, 15 mg/kg/day, or 30 mg/kg/day. The drug was infused intravenously (24 hours/day) into the femoral vein at a dose rate of 2 ml/kg/hour for 14 consecutive days. Blood samples were removed from each monkey on Days 1, 2, 6, 10, and 15 of the treatment period. Monkeys were bled by venipuncture and samples were collected into tubes containing K2EDTA. On Day 1, samples were collected at 2, 6, and 12 hours after initiation of treatment. Additional samples were collected at 30 hours after the start of infusion (Day 2). On Days 6 and 10, samples were collected at approximately 6 hours after the bag changes. At the end of the 14 days of infusion, on Day 15, samples were collected at 1 hour prior to cessation of dose administration, and at 5 min, 30 min, 1 h, 2 h, 4 h, 8 h, and 24 h following cessation of dose administration."}, "[4]": {"test": "In vivo toxicity of Compound 1 in monkeys"}, "[5]": {"test": "In vivo toxicity of Compound 1 in rats", "conditions": "rat, single bolus intravenous administration, healthy rats", "from_the_text": "The toxicity was due to the vehicle and was attributed to smaller size of infusion vessels, and concurrent catheter tract infection."}, "[6]": {"test": "Population pharmacokinetic analysis (NONMEM), rat", "assay_type": "in vivo", "conditions": "plasma, Rat (IV + CIV); for Vd: read-out: Vss; for half-life: rat, iv", "from_the_text": "Plasma concentrations of Compound 1 were obtained from mice, rats, and monkeys following intravenous injection or continuous infusion. Compound 1 pharmacokinetic parameters in mice, rats, and monkeys were estimated using population pharmacokinetic analysis, a function of the software program NONMEM™ (version 5). Typical population pharmacokinetic parameters for Compound 1 in humans were extrapolated from allometric equations that were derived from pharmacokinetic parameters estimated in the three animal species. […] A two-compartment model with a first-order elimination from the central compartment adequately described Compound 1 plasma concentration-time profiles following intravenous bolus injection (30 mg/kg) in mice and rats, 7-day continuous infusion in rats (50 to 170 mg/kg/day), and 14-day continuous infusion in monkeys (5 to 30 mg/kg/day)."}, "[7]": {"conditions": "cynomolgus monkey, plasma, intravenous, CIV, 30 mg/kg/day"}, "[8]": {"conditions": "cynomolgus monkey, plasma, 5 mg/kg/day"}, "[9]": {"conditions": "cynomolgus monkey, plasma, 15 mg/kg/day"}}, "note": "“And” between values parts separate entries of the source, which are not always exact repeats. Equal values may be shown once. Read-outs that look alike come from different tables or passages of the source. Marks after values point to notes of the source that are not given here."}
{"smiles": "CC(C)=CCC/C(C)=C/CC/C(C)=C/CN1C(=O)c2cccc(O)c2Nc2c(O)cc(O)cc21", "note": "[Compound 1, 10-farnesyl-4,6,8-trihydroxy-dibenzodiazepin-11-one]", "values": [{"measurement": "tolerability of dose regimen", "setting": "[1]", "result": "well tolerated"}, {"measurement": "antitumor activity (in words)", "setting": "[2]", "result": "did not result in activity"}, {"measurement": "AUC increase between groups", "setting": "[3]; 15 mg/kg/day versus 5 mg/kg/day", "result": 3.4, "unit": "fold"}, {"measurement": "AUC increase between groups", "setting": "[3]; 30 mg/kg/day versus 15 mg/kg/day", "result": 4.7, "unit": "fold"}, {"measurement": "Css", "setting": "[3]; 5 mg/kg/day", "result": "358^b (85)^ ng/mL"}, {"measurement": "T1/2z", "setting": "[3]; 5 mg/kg/day", "result": "12 (3) h"}, {"measurement": "Css", "setting": "[3]; 15 mg/kg/day", "result": "1,173 (340) ng/mL"}, {"measurement": "T1/2z", "setting": "[3]; 15 mg/kg/day", "result": "8.3 (2.2) h"}, {"measurement": "Css", "setting": "[3]; 30 mg/kg/day", "result": "6,283 (3,650) ng/mL"}, {"measurement": "T1/2z", "setting": "[3]; 30 mg/kg/day", "result": "8.1 (1.0) h"}, {"measurement": "concentration at 1 day", "setting": "[3]; [7]", "result": "2810 ng/mL and ~6.1 µM"}, {"measurement": "concentration at 6 day", "setting": "[3]; [7]", "result": "4350 ng/mL and ~9.4 µM"}, {"measurement": "concentration at 10 day", "setting": "[3]; [7]", "result": "~15 µM and 6860 ng/mL"}, {"measurement": "concentration at 15 day", "setting": "[3]; [7]", "result": "8560 ng/mL and ~18.5 µM"}, {"measurement": "Vd", "setting": "[3]; cynomolgus monkey, plasma, 5 mg/kg/day, 5 mg/kg/day, read-out: Vss", "result": 7.1, "unit": "L/kg"}, {"measurement": "Vd", "setting": "[3]; cynomolgus monkey, plasma, 5 mg/kg/day, 5 mg/kg/day, read-out: Vz", "result": 10, "unit": "L/kg"}, {"measurement": "Vd", "setting": "[3]; cynomolgus monkey, plasma, 15 mg/kg/day, 15 mg/kg/day, read-out: Vss", "result": 3.6, "unit": "L/kg"}, {"measurement": "AUC", "setting": "[3]; [8]", "result": 119, "unit": "µg·h/mL"}, {"measurement": "clearance", "setting": "[3]; [8]", "result": 10.2, "unit": "mL/min/kg"}, {"measurement": "AUC", "setting": "[3]; [9]", "result": 400, "unit": "µg·h/mL"}, {"measurement": "clearance", "setting": "[3]; [9]", "result": 9.33, "unit": "mL/min/kg"}, {"measurement": "AUC", "setting": "[3]; cynomolgus monkey, plasma, 30 mg/kg/day", "result": 1870, "unit": "µg·h/mL"}, {"measurement": "Vd", "setting": "[3]; cynomolgus, cynomolgus monkey, plasma, 15 mg/kg/day, 15 mg/kg/day, read-out: Vz", "result": 6.8, "unit": "L/kg"}, {"measurement": "Vd", "setting": "[3]; cynomolgus, cynomolgus monkey, plasma, 30 mg/kg/day, 30 mg/kg/day, read-out: Vss", "result": 10.7, "unit": "L/kg"}, {"measurement": "Vd", "setting": "[3]; cynomolgus, cynomolgus monkey, plasma, 30 mg/kg/day, 30 mg/kg/day, read-out: Vz", "result": 3.2, "unit": "L/kg"}, {"measurement": "clearance", "setting": "[3]; cynomolgus, cynomolgus monkey, plasma, 30 mg/kg/day", "result": 4.5, "unit": "mL/min/kg"}, {"measurement": "acute toxicity, tolerability", "setting": "[4]; 24-hour CIV, doses of 35 mg/kg and 70 mg/kg, infusion rate 2 mL/kg/hour", "result": "well tolerated"}, {"measurement": "MTD", "setting": "[4]; monkey, in vivo, single bolus intravenous administration", "result": "~35", "unit": "mg/kg"}, {"measurement": "MTD", "setting": "[5]", "result": 85, "unit": "mg/kg"}, {"measurement": "clearance", "setting": "[6]; WT 0.225 Kg", "result": 4.08, "unit": "mL/min"}, {"measurement": "Vd", "setting": "[6]; WT 0.225 Kg", "result": 0.081, "unit": "L"}, {"measurement": "clearance", "setting": "[6]; population PK", "result": 18.2, "unit": "mL/min/kg"}, {"measurement": "Vd", "setting": "[6]; population PK", "result": 0.362, "unit": "L/kg"}, {"measurement": "half-life", "setting": "[6]; population PK, read-out: t1/2, α (converted)", "result": 0.075, "unit": "h"}, {"measurement": "half-life", "setting": "[6]; population PK, read-out: t1/2, β (converted)", "result": 2.5, "unit": "h"}]}
